# Source: patent publication US20140294856A1, “COMBINATION TREATMENT COMPRISING A HDAC6 INHIBITOR AND AN AKT INHIBITOR” (priority 2011, published 2014)
# Tests used:
# [1] = test system: A549 cells; assay: Impact of BSO (GSH depletion) on growth inhibition, SRB assay; assay type: cell-based; conditions: 10 μM BSO for 24 hours
# [2] = test system: HCT116 tumours; assay: Phospho-AKT levels in HCT116 tumours; assay type: in vivo, mice
# [3] = test system: HCT116 xenograft; assay: Biomarkers screening in HCT116 xenograft tumours; assay type: in vivo, mice
# Procedure: (§1) FIG. 5. Anti-tumour activity of HDAC-C1A in A2780 (A & B) and HCT116 (C & D) xenograft models (Tumours volumes relative to tumour volume at day 1 (A & C) and corresponding body weight (relative to body weight at day 1) (B & D)). E. Biomarkers screening at early time points following a single injection of HDAC-C1A in HCT116 xenograft at 40 mg/kg compared to a continuous 14 days treatment at the indicated dose. Tumours were excised 6 hours following the last injection.
# (§2) The drug was stable after oral, parenteral and intravenous administration for 24 h (last time point examined). […] The Cma and AUC0-24h following i.p. injection (20 mg/kg) were 3.2 μg/mL and 11.2 μg/mL*h, respectively. […] The acid instability of HDAC-C1A could therefore be improved by enteric coating as a means to avoid breakdown in the stomach. […] HDAC-C1A was also tested in HCT116 human colon cancer xenograft model using a refined dose and scheduling. […] This dose was non-toxic (no reduction in body weight) (FIG. 5.D). The acetylated form of α-tubulin (biomarker of response to HDAC6 inhibition) could be observed after 14 days of treatment and could be detected as early as 6 hours after the 1st injection (FIG. 5.E.). The acetylated form of Histone 3 (biomarker of response of class I histones) could be observed as early as 2 hours after the 1st injection and remain after 14 days of treatment (FIG. 5.E).
# [4] = test system: HCT116 xenograft; assay: Differential gene expression, affymetrix human genome array; assay type: in vivo, mice
# [5] = test system: A2780 cells; assay: Growth inhibition (GI50); assay type: cell-based, human
# [6] = test system: caco-2 cells; assay: caco-2 transwell permeability assay
# [7] = test system: MCF7; assay: Phospho-AKT levels by western blotting; assay type: cell-based; conditions: breast cancer cell line MCF7
# [8] = test system: SH-SY5Y; assay: Growth inhibition, SRB assay, 72 hours; assay type: cell-based; conditions: SH-SY5Y neuroblastoma
# [9] = test system: HCT116 cells; assay: Growth inhibition (GI50); assay type: cell-based, human
# Text: Different treatment scheduling are shown. […] The results are mean of n=6.
# [10] = molecular target: MRP1 (Homo sapiens, UniProt P33527); assay: Impact of MRP1 on cytotoxicity, MK-571 pre-treatment in A549 cells
# Sequence of MRP1 (P33527 whole entry): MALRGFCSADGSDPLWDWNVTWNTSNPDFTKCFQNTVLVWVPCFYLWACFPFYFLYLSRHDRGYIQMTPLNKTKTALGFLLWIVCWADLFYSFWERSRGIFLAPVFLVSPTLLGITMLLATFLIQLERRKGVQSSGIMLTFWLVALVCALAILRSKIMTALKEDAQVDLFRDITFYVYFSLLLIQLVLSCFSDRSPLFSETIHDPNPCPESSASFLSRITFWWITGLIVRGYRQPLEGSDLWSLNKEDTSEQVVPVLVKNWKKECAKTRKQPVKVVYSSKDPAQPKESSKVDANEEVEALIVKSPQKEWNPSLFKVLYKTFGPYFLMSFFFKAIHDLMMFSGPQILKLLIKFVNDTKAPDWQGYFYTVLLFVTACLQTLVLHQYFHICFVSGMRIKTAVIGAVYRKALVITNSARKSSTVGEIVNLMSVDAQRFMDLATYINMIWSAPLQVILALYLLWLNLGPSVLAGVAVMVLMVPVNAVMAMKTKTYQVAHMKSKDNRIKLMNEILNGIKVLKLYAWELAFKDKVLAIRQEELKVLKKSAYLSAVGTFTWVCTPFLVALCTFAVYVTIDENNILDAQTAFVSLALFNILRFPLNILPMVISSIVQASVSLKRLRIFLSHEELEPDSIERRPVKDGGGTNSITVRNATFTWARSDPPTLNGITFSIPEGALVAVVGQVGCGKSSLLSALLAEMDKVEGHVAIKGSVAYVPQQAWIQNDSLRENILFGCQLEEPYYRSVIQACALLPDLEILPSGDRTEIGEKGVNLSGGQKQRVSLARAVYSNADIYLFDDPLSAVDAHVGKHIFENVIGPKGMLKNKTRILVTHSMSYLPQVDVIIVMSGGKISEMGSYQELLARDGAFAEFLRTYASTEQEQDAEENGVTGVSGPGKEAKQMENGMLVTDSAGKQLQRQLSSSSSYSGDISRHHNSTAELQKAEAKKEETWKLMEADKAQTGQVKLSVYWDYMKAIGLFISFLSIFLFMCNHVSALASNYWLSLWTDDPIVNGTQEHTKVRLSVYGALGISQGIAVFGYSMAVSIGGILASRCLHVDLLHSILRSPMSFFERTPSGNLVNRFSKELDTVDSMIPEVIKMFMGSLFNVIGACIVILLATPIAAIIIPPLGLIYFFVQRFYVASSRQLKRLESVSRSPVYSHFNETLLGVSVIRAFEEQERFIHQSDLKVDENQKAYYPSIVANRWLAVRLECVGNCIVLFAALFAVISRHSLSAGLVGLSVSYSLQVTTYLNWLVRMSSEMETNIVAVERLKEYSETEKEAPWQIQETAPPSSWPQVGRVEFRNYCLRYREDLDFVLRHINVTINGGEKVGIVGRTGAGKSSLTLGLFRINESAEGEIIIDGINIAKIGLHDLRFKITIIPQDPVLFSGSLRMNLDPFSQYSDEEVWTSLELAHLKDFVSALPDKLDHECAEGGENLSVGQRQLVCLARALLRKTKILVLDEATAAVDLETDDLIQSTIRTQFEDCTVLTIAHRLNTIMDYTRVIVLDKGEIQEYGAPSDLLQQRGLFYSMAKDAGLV
# Procedure: The impact of ABC transporters on the cytotoxicity of HDAC-C1A was assessed using cell lines with differential expression of the ABC transporters and by using inhibitors.
# [11] = test system: HCT116 cells; assay: Acetylation biomarkers by western blotting (with washout); assay type: cell-based, human
# Procedure: FIG. 1. HDAC-C1A irreversible activity. A. […] inhibitory activity of HDAC-C1A was tested using HeLa nuclear extracts and compared to the negative (reversible) control HDAC-C1B. B Growth inhibitory effect of the different compounds in HCT-116 cells at indicated time and compared to growth inhibitory after 72 hours of incubation.
# (§3) HSP90 protein expression was not altered (FIG. 2).
# [12] = test system: HCT116 cells; assay: Phospho-AKT levels by western blotting; assay type: cell-based, human; conditions: 10 μM
# [13] = test system: CHO cells deficient in DNA repair; assay: Growth inhibition in cell lines deficient in DNA repair machinery; assay type: cell-based
# [14] = test system: IGROV-1; assay: Phospho-AKT levels by western blotting; assay type: cell-based; conditions: ovarian cancer cell line IGROV-1
# [15] = Pharmacokinetics following a single injection; assay type: in vivo
# Procedure: FIG. 4. Pharmacokinetic profile of HDAC-C1A following a single injection at 20 mg/kg.
# FIG. 22 (Table 3): Pharmacokinetic data of HDAC-C1A following a single injection.
# as §2
# [16] = molecular target: HDAC-8 (Homo sapiens, UniProt Q9BY41); assay: Enzyme inhibition activity, Fluor-de-Lys kit; assay type: biochemical
# Sequence of HDAC-8 (Q9BY41 whole entry): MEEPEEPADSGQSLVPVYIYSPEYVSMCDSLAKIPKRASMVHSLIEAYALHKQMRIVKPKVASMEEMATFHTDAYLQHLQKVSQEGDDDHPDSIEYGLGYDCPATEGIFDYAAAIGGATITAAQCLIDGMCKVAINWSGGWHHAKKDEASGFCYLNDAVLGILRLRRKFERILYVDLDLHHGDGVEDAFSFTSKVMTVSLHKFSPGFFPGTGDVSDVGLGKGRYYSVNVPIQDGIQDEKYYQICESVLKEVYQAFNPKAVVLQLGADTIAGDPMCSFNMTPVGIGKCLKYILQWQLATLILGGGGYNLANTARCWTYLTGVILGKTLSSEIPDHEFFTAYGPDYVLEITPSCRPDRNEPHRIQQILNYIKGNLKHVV
# Text: HDAC-C1A is a particularly preferred HDAC6 inhibitor of the invention. […] HDAC-C1A is approximately 7-fold more specific for HDAC6 than for HDAC-8 and approximately 17-fold more specific for HDAC6 when compared with HDAC1 (see Table 1). […] As brain permeability remains a major limitation for drug treatment of CNS disorders, HDAC-C1A, or compounds derived from HDAC-C1A, appear to be very promising drug candidates.
# (§4) FIG. 20 (Table 1): Enzyme inhibition activity using HeLa nuclear extract and the Fluor-de-Lys kit.
# [17] = test system: A2780 human ovarian cancer xenograft; assay: Anti-tumour activity in A2780 xenograft model; assay type: in vivo
# Procedure: as §1, §2
# [18] = molecular target: HDAC6 (Homo sapiens, UniProt Q9UBN7); assay: Enzyme inhibition activity, Fluor-de-Lys kit; assay type: biochemical
# Sequence of HDAC6 (Q9UBN7 whole entry): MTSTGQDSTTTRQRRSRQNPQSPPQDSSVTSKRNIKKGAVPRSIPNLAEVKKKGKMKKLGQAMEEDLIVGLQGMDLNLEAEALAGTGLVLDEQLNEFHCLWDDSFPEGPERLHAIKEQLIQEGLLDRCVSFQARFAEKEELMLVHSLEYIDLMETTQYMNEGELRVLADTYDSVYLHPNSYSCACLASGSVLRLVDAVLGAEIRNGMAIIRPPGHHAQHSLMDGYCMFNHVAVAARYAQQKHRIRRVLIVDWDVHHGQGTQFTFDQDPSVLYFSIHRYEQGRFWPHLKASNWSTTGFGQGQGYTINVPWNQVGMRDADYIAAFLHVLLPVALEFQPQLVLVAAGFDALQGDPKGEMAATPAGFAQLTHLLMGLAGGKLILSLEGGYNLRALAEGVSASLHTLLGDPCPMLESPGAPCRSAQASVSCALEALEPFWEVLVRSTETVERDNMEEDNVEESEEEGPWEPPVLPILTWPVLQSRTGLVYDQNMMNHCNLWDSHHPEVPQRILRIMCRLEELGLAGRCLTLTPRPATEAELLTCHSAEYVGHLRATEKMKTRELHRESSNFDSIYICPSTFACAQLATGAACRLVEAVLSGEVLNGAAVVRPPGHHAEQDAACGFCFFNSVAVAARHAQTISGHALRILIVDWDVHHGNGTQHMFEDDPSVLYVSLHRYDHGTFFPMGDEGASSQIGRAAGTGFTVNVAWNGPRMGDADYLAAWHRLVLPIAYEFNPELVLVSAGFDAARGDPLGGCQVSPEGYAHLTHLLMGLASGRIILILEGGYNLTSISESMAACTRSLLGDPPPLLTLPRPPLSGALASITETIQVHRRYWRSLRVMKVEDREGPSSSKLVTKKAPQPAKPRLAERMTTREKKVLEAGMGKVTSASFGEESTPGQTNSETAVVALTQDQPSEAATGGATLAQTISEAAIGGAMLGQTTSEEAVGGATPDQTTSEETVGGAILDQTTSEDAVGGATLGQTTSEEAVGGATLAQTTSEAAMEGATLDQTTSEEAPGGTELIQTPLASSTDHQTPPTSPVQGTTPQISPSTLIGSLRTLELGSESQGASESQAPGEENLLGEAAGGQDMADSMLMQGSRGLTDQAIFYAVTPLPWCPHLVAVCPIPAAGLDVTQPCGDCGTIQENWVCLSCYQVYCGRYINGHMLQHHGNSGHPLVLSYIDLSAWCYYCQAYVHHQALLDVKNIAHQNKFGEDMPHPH
# Text: as §4, §3
# [19] = test system: A2780; assay: Phospho-AKT levels by western blotting; assay type: cell-based, human; conditions: ovarian cancer cell line A2780
# [20] = 14 days, 40 mg/kg every other day
# [21] = homologous recombination repair
smiles,measurement,setting,value
CC(/C=C/C(=O)NO)=C\c1ccc(NS(=O)(=O)c2ccc(N(CCCl)CCCl)cc2)cc1 [HDAC-C1A],impact of BSO on growth inhibition (GI50 ratio),[1],No difference
same,P-AKT in tumours,"[2]; HDAC-C1A alone 20 mg/kg, 6 hours",up-regulation
same,P-AKT in tumours,"[2]; HDAC-C1A combined with API-2, 24 hours after single injection",still showed increased P-AKT
same,P-AKT in tumours,"[2]; combination regimen BEZ-235 + HDAC-C1A, 6 hours",No P-AKT was detected
same,anti-apoptotic factor Bcl2,[3]; after 48 hours,down-regulated
same,earliest detection of acetylated Histone 3 after 1st injection,[3]; single injection 40 mg/kg,2 h
same,earliest detection of acetylated α-tubulin after 1st injection,[3]; single injection 40 mg/kg,6 h
same,number of genes deregulated (of 20 000 tested),"[4]; 24 hours, 40 mg/kg",20 genes
same,number of genes up-regulated,"[4]; 24 hours, 40 mg/kg",17
same,ALDH1 up-regulation,[4]; 14 days of treatment,~1.6 fold
same,Gasdermin D up-regulation,[4]; 14 days of treatment,~1.5 fold
same,K AZ up-regulation,[4]; 14 days of treatment,~1.5 fold
same,KLK3 down-regulation,[4]; 14 days of treatment,~1.5 fold
same,RAD23B up-regulation,[4]; 14 days of treatment,~1.8 fold
same,SYNDECAN-2 down-regulation,[4]; 14 days of treatment,~1.7 fold
same,UNG up-regulation,[4]; 14 days of treatment,~1.7 fold
same,number of genes deregulated by at least 1.5 fold,[4]; [20],132 genes
same,share of genes deregulated,[4]; [20],< 0.7%
same,mRNA levels of PTEN vs vehicle,[4]; after 1 and 14 days,not altered
same,GI50,[5],700 nM
same,permeability across caco-2 cells,[6]; Caco-2,relatively good permeability
same,substrate of the ABC transporters,[6]; Caco-2,non substrate
same,permeability (PappA-B),[6]; caco-2 cells,5.1 ×10⁻⁶ cm/s
same,PappB-A/PappA-B ratio,[6]; ratio greater than 3 = actively effluxed,2.8
same,P-AKT levels,[7],increased
same,GI50,[8],0.09 µg/mL
same,GI50,[9],3700 nM
same,substrate of MRP1,[10],non-substrates
same,HSP90 protein expression,[11],not altered
same,acetylation markers at low concentration and early time point,[11]; 1 μM and 4 hours,increase of acetyl-tubulin and other markers of HDAC6 inhibition
same,acetyl form of HSP90,"[11]; 4 h and 24 h, 1 μM and 10 μM",dose and time dependent increase
same,"acetylation of histone H3, H4 and α-tubulin after washout","[11]; treatment 4 hours, then washout",maintained at 4 hours after washout
same,fold increase of P-AKT,[12]; 4 h,1.5 fold
same,fold increase of P-AKT,[12]; 24 h,2 fold
same,sensitivity (GI50 ratio) of cells deficient in XRCC3 vs proficient,[13]; [21],as sensitive as the parental proficient cell lines
same,"sensitivity (GI50 ratio, fold) of cells deficient in XRCC2 vs proficient",[13]; [21],as sensitive as the parental proficient cell lines
same,"sensitivity (GI50 ratio, fold) of cells deficient in XRCC5 vs proficient",[13]; non homologous end joining,as sensitive as the parental proficient cell lines
same,sensitivity (GI50 ratio) of cells deficient in ERCC1 vs proficient,[13]; nucleotide excision repair,as sensitive as the parental proficient cell lines
same,sensitivity of cells deficient in XPB vs proficient,[13]; nucleotide excision repair,as sensitive as the parental proficient cell lines
same,P-AKT levels,[14],increased
same,AUC0-24h,[15]; given orally,94000 ng·h/mL
same,Cmax,[15]; given orally,700 ng/mL
same,AUC0-24h,[15]; i.p. injection 20 mg/kg,11200 ng·h/mL
same,Cmax,[15]; i.p. injection 20 mg/kg,3200 ng/mL
same,dose proportionality of pharmacokinetics,"[15]; i.p. injection, up to 160 mg/kg",dose proportionate
same,oral bioavailability,"[15]; in vivo, po",16%
same,stability after administration,"[15]; oral, parenteral and intravenous, 24 h last time point",stable
same,fold more specific for HDAC6 than for HDAC-8,[16],approximately 7 fold
same,body weight loss,"[17]; 80 mg/kg/day, in some animals, at 7 days, treatment stopped",10%
same,Tumour Growth Delay (TGD2x),[17]; i.p. 80 mg/kg/day,3 ± 0.3 days
same,Tumour Growth Inhibition (TGI) compared with vehicle,[17]; i.p. 80 mg/kg/day,74%
same,IC50 for HDAC6,[18],0.063 µg/mL
same,P-AKT levels,[19],increased
